Earlier results on 6 compounds are cited in patent US20190160058A1, “METHODS OF TREATMENT WITH SELECTIVE CB2 RECEPTOR AGONISTS” (Arena Pharmaceuticals, Inc., priority 2016, published 2019).

In one data set the test system is EAE mouse model. Particulars: in vivo; cited from earlier work.
The subject of data set [1] is bone marrow-derived osteoblasts/stromal cells. Particulars: in vitro; cited from earlier work.
In data set [2] the test system is ovariectomy-induced bone loss. As to conditions: in vivo; cited from earlier work.
For data set [3], the system named is guinea pig vagus nerve preparations. Particulars: in vitro; cited from earlier work.
The test system of data set [4] is human vagus nerve preparations. Particulars: in vitro; cited from earlier work.
Another data set deals with conscious guinea-pigs. Particulars: given prior to exposure to citric acid; cited from earlier work.
The subject of the next data set is RPE cells. As to conditions: cited from earlier work.
The subject of data set [5] is LPS-induced bladder inflammation. As to conditions: in vivo; cited from earlier work.
Data set [6] deals with mouse model for allergic contact dermatitis. Particulars: subcutaneous injection; cited from earlier work.
In a further data set the test system is ApoE knockout mice. Particulars: mouse, in vivo; cited from earlier work.
In data set [7] the test system is bovine nasal cartilage explants. Particulars: in vitro; cited from earlier work.
In a further data set the test system is mice. As to conditions: cited from earlier work.
In the next data set the test system is guinea pigs. Particulars: cited from earlier work.

Regarding `CCCCCCC(C)(C)c1cc(OC)c([C@@H]2C=C(CO)[C@@H]3C[C@H]2C3(C)C)c(OC)c1` [HU-308], the “cell recruitment, proliferation and axonal loss” value with EAE mouse model is “markedly reduces the recruitment of immature myeloid cells and T cells, microglial and infiltrating myeloid cell proliferation, and axonal loss”. Further, in [1], the “osteoblast numbers and activity, osteoclast precursor proliferation” value is “enhances endocortical osteoblast numbers and activity while simultaneously inhibiting proliferation of osteoclast precursors”. Moreover, the “bone loss and cortical thickness” value in [2] is “attenuates ovariectomy-induced bone loss and stimulates cortical thickness”.
As for `CCCC(C)(C)c1ccc2c(c1)OC(C)(C)[C@@H]1CC=C(C)C[C@@H]21` [JWH133], the “capsaicin-, PGE2-, and hypertonic saline-induced depolarization” value in [3] is “reduces capsaicin-, PGE2-, and hypertonic saline-induced depolarization”; in data set [4] it was “reduces capsaicin-, PGE2-, and hypertonic saline-induced depolarization”. Further, the cough result with conscious guinea-pigs was “significantly reduces cough”.
In the case of `CCCn1c(C)c(C(=O)c2cccc3ccccc23)c2ccccc21` [JWHO15], the “protection from oxidative damage” value with RPE cells was “provides comparable protection”. Further, the LPS-induced bladder inflammation result in data set [5] is listed as “antagonize LPS-induced bladder inflammation”.
On to `CCCCCc1cc(O)c2c(c1)OC(C)(C)[C@@H]1CCC(C)=C[C@@H]21` [THC], for which, in the data set with EAE mouse model, the “severity of clinical disease” value was “significantly inhibits the severity of clinical disease”. The “cutaneous inflammation and pruritus (itch)” value in [6] is “reduces cutaneous inflammation and the pruritus (itch)”. In the data set on ApoE knockout mice, the progression of atherosclerosis entry is “reduces the progression of atherosclerosis”.
Turning to `Cc1c(C(=O)c2cccc3ccccc23)c2cccc3c2n1[C@H](CN1CCOCC1)CO3` [WIN 55212-2], the “leukocyte rolling and adhesion in the brain” value in the data set with EAE mouse model is “significantly inhibits leukocyte rolling and adhesion in the brain”. Moreover, the “IL-1alpha-stimulated proteoglycan and collagen degradation” value in data set [7] is reported as “significantly inhibit”. For the same compound, the “number of capsaicin-induced coughs” value in the data set with mice was “dose-dependent inhibition”.
Turning to `CCCCC/C=C\C/C=C\C/C=C\C/C=C\CCCC(=O)NCCO` [anandamide], the “number of capsaicin-induced coughs” value with guinea pigs is reported as “dose-dependent inhibition”.
